Calls of active or inactive are those of the source. No cut-off for these calls is given here.
Key:
[1] = Protective index, ratio of TD50 for neurotoxicity in Mus musculus Swiss albino (mouse) to ED50 for anticonvulsant activity in Mus musculus Swiss albino (mouse) measured 0.5 hr post compound treatment; type: toxicity, organism-based; settings: in vivo, read-out: Ratio TD50/ED50
Mus musculus [2] = experiment: Anticonvulsant activity in ip dosed Mus musculus Swiss albino (mouse) assessed as protection against maximal electroshock-induced seizures measured after 0.5 hr post compound treatment; type: functional
[3] = Neurotoxicity in ip dosed Mus musculus Swiss albino (mouse) assessed as motor impairment measured after 0.5 hr post compound treatment for 1 min by rotarod test; type: toxicity, organism-based; settings: in vivo
Mus musculus [4] = experiment: Neurotoxicity in Mus musculus Swiss albino (mouse) assessed as motor impairment at 100 mg/kg, ip measured for 1 min by rotarod test; type: toxicity, organism-based; set-up: dose 100 mg/kg, route intraperitoneal; settings: in vivo
Mus musculus [5] = experiment: Neurotoxicity in Mus musculus Swiss albino (mouse) assessed as motor impairment at 600 mg/kg, ip measured for 1 min by rotarod test; type: toxicity, organism-based; set-up: dose 600 mg/kg, route intraperitoneal; settings: in vivo
Mus musculus [6] = experiment: Anticonvulsant activity in Mus musculus Swiss albino (mouse) assessed as protection against maximal electroshock-induced seizures at 30 mg/kg, ip measured after 4 hr post compound treatment; type: functional, organism-based; set-up: dose 30 mg/kg
Mus musculus [7] = experiment: Anticonvulsant activity in Mus musculus Swiss albino (mouse) assessed as protection against maximal electroshock-induced seizures at 30 mg/kg, ip measured after 0.5 hr post compound treatment; type: functional, organism-based; set-up: dose 30 mg/kg
Mus musculus [8] = experiment: Anticonvulsant activity in ip dosed Mus musculus Swiss albino (mouse) assessed as protection against maximal electroshock-induced seizures measured; type: functional
[9] = Protective index, ratio of TD50 for neurotoxicity in Mus musculus Swiss albino (mouse) to ED50 for anticonvulsant activity in Mus musculus Swiss albino (mouse); type: toxicity, organism-based; settings: in vivo, read-out: Ratio TD50/ED50
Mus musculus [10] = experiment: Anticonvulsant activity in Mus musculus Swiss albino (mouse) assessed as protection against maximal electroshock-induced seizures at 300 mg/kg, ip measured after 4 hr post compound treatment; type: functional, organism-based; set-up: dose 300 mg/kg
Mus musculus [11] = experiment: Anticonvulsant activity in Mus musculus Swiss albino (mouse) assessed as protection against maximal electroshock-induced seizures at 300 mg/kg, ip measured after 0.5 hr post compound treatment; type: functional, organism-based; set-up: dose 300 mg/kg
Mus musculus [12] = experiment: Anticonvulsant activity in Mus musculus Swiss albino (mouse) assessed as protection against subcutaneous pentylenetetrazol-induced clonic spasms at 300 mg/kg, ip after 0.5 hr post compound treatment; type: functional, organism-based; set-up: dose 300 mg/kg
Mus musculus [13] = experiment: Anticonvulsant activity in Mus musculus Swiss albino (mouse) assessed as protection against subcutaneous pentylenetetrazol-induced clonic spasms at 300 mg/kg, ip after 4 hr post compound treatment; type: functional, organism-based; set-up: dose 300 mg/kg
Mus musculus [14] = experiment: Anticonvulsant activity in Mus musculus Swiss albino (mouse) assessed as protection against subcutaneous pentylenetetrazol-induced clonic spasms at 30 mg/kg, ip after 0.5 hr post compound treatment; type: functional, organism-based; set-up: dose 30 mg/kg
Mus musculus [15] = experiment: Anticonvulsant activity in Mus musculus Swiss albino (mouse) assessed as protection against subcutaneous pentylenetetrazol-induced clonic spasms at 30 mg/kg, ip after 4 hr post compound treatment; type: functional, organism-based; set-up: dose 30 mg/kg

| Structure (SMILES) | Activity (Mus musculus [4]) | Activity (Mus musculus [5]) | Activity (Mus musculus [6]) | Activity (Mus musculus [7]) | Activity (Mus musculus [10]) | Activity (Mus musculus [11]) | Activity (Mus musculus [12]) | Activity (Mus musculus [13]) | also measured |
| --- | --- | --- | --- | --- | --- | --- | --- | --- | --- |
| NC(=O)Cc1ccccc1-c1cccnc1 | Non-toxic | Toxic | Active | Active | – | – | – | – | selectivity ratio at 0.5 h [1]: 26; ED50 (Mus musculus [2]): 8.28 mg/kg; TD50 at 0.5 hr [3]: 215 mg/kg |
| O=C1CCCN1C(=O)Cc1ccccc1Nc1ccccc1 | Non-toxic | Toxic | – | – | – | – | – | – | ED50 (Mus musculus [8]): 8 mg/kg; selectivity ratio [9]: 87.5 |
| NC(=O)NNC(=O)Cc1ccccc1-c1cccnc1 | Non-toxic | Toxic | – | – | inactive | inactive | inactive | inactive | – |
| CC(C)(C)NC(=O)NCc1ccccc1-c1cccnc1 | Non-toxic | Toxic | – | – | inactive | inactive | inactive | inactive | – |
| NC(=S)NNC(=O)Cc1ccccc1-c1cccnc1 | Non-toxic | Toxic | – | – | inactive | inactive | inactive | inactive | – |
| O=C1NC(=O)C(c2ccccc2)(c2ccccc2)N1 [PHENYTOIN] | Non-toxic | Toxic | Active | Active | – | – | – | – | – |
| NC(=O)N1c2ccccc2C=Cc2ccccc21 [CARBAMAZEPINE] | Non-toxic | Toxic | Active | Active | – | – | – | – | – |
| O=C(NCc1ccccc1-c1cccnc1)NC1CCCCC1 | Non-toxic | Toxic | – | – | inactive | inactive | inactive | inactive | – |
| CCC1(c2ccccc2)C(=O)NC(=O)NC1=O [PHENOBARBITAL] | Non-toxic | Toxic | – | – | – | – | – | – | Activity (Mus musculus [14]): Active; Activity (Mus musculus [15]): Active |
| CN1C(=O)CN=C(c2ccccc2)c2cc(Cl)ccc21 [DIAZEPAM] | Non-toxic | Toxic | – | – | – | – | – | – | Activity (Mus musculus [14]): Active; Activity (Mus musculus [15]): Active |

Source: ChEMBL document CHEMBL3045718, “Substituted 2-[2-(pyridin-3-yl) phenyl] acetamides and ureas: design, synthesis, and anticonvulsant screening in mice” (Med Chem Res, 2012)
